{"source": "patent US20250098679A1", "about": "“HERBICIDAL PYRIDONE DERIVATIVES” (SYNGENTA CROP PROTECTION AG, priority 2021, published 2025)", "format_in_all_cases": "in vivo", "conditions_in_all_cases": "evaluated after 13 days", "key": {"[1]": {"tested_on": "Setaria faberi (SETFA)", "test": "Pre-emergence Test, Setaria faberi (SETFA)"}, "[2]": {"tested_on": "Echinochloa crus-galli (ECHCG)", "test": "Pre-emergence Test, Echinochloa crus-galli (ECHCG)"}, "[3]": {"tested_on": "Zea mays (ZEAMX)", "test": "Pre-emergence Test, Zea mays (ZEAMX)"}, "[4]": {"tested_on": "Ipomoea hederacea (IPOHE)", "test": "Pre-emergence Test, Ipomoea hederacea (IPOHE)"}, "[5]": {"tested_on": "Amaranthus palmeri (AMAPA)", "test": "Pre-emergence Test, Amaranthus palmeri (AMAPA)"}, "[6]": {"tested_on": "Amaranthus retoflexus (AMARE)", "test": "Pre-emergence Test, Amaranthus retoflexus (AMARE)"}, "[7]": {"tested_on": "Setaria faberi (SETFA)", "test": "Post-emergence Test, Setaria faberi (SETFA)", "parameters": "key to percentage damage caused to the plant, SETFA (five-point scale): 5=81-100%, 4=61-80%, 3=41-60%, 2=21-40%, 1=0-20% damage", "outline": "(§1)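 Tested at 1000 g/ha unless otherwise stated. Plants were held at 24/16 °C day/night with a 14 h light period. Percent damage was read at 13 days and reported in five bands.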"}, "[8]": {"tested_on": "Echinochloa crus-galli (ECHCG)", "test": "Post-emergence Test, Echinochloa crus-galli (ECHCG)", "parameters": "key to percentage damage caused to the plant, ECHCG (five-point scale): 5=81-100%, 4=61-80%, 3=41-60%, 2=21-40%, 1=0-20% damage", "outline": "as §1"}, "[9]": {"tested_on": "Zea mays (ZEAMX)", "test": "Post-emergence Test, Zea mays (ZEAMX)", "parameters": "key to percentage damage caused to the plant, ZEAMX (five-point scale): 5=81-100%, 4=61-80%, 3=41-60%, 2=21-40%, 1=0-20% damage", "outline": "as §1"}, "[10]": {"tested_on": "Ipomoea hederacea (IPOHE)", "test": "Post-emergence Test, Ipomoea hederacea (IPOHE)", "parameters": "key to percentage damage caused to the plant, IPOHE (five-point scale): 5=81-100%, 4=61-80%, 3=41-60%, 2=21-40%, 1=0-20% damage", "outline": "as §1"}, "[11]": {"tested_on": "Amaranthus palmeri (AMAPA)", "test": "Post-emergence Test, Amaranthus palmeri (AMAPA)", "parameters": "key: 5=81-100%, 4=61-80%, 3=41-60%, 2=21-40%, 1=0-20% damage", "outline": "as §1"}, "[12]": {"tested_on": "Amaranthus retoflexus (AMARE)", "test": "Post-emergence Test, Amaranthus retoflexus (AMARE)", "parameters": "key to percentage damage caused to the plant, AMARE (five-point scale): 5=81-100%, 4=61-80%, 3=41-60%, 2=21-40%, 1=0-20% damage", "outline": "as §1"}}}
{"smiles": "CCn1c(Cn2nccc2Cl)cc(=O)c(C(=O)O)c1-c1ccc(Cl)c(Cl)c1", "note": "[Compound 80, 6-[(5-chloropyrazol-1-yl)methyl]-2-(3,4-dichlorophenyl)-1-ethyl-4-oxo-pyridine-3-carboxylic acid]", "values": [{"measurement": "Pre-emergence Test SETFA, percentage damage caused to the plant (five-point scale)", "setting": "[1]; 250 g/Ha (*)", "value": "4 (4=61-80%)"}, {"measurement": "Pre-emergence Test SETFA, percentage damage caused to the plant (five-point scale)", "setting": "[1]; 1000 g/ha", "value": "5 (5=81-100%)"}, {"measurement": "Pre-emergence Test ECHCG, percentage damage caused to the plant (five-point scale)", "setting": "[2]; 250 g/Ha (*)", "value": "3 (3=41-60%)"}, {"measurement": "Pre-emergence Test ECHCG, percentage damage caused to the plant (five-point scale)", "setting": "[2]; 1000 g/ha", "value": "5 (5=81-100%)"}, {"measurement": "Pre-emergence Test ZEAMX, percentage damage caused to the plant (five-point scale)", "setting": "[3]; 250 g/Ha (*)", "value": 0}, {"measurement": "Pre-emergence Test ZEAMX, percentage damage caused to the plant (five-point scale)", "setting": "[3]; 1000 g/ha", "value": 0}, {"measurement": "Pre-emergence Test IPOHE, percentage damage caused to the plant (five-point scale)", "setting": "[4]; 250 g/Ha (*)", "value": "2 (2=21-40%)"}, {"measurement": "Pre-emergence Test IPOHE, percentage damage caused to the plant (five-point scale)", "setting": "[4]; 1000 g/ha", "value": "3 (3=41-60%)"}, {"measurement": "Pre-emergence Test AMAPA, percentage damage caused to the plant (five-point scale)", "setting": "[5]; 250 g/Ha (*)", "value": "1 (1=0-20%)"}, {"measurement": "Pre-emergence Test AMAPA, percentage damage caused to the plant (five-point scale)", "setting": "[5]; 1000 g/ha", "value": "1 (1=0-20%)"}, {"measurement": "Pre-emergence Test AMARE, percentage damage caused to the plant (five-point scale)", "setting": "[6]; 250 g/Ha (*)", "value": 0}, {"measurement": "Pre-emergence Test AMARE, percentage damage caused to the plant (five-point scale)", "setting": "[6]; 1000 g/ha", "value": 0}, {"measurement": "percentage damage caused to the plant, SETFA (five-point scale)", "setting": "[7]; 250 g/Ha", "value": "3 (3=41-60%)"}, {"measurement": "percentage damage caused to the plant, SETFA (five-point scale)", "setting": "[7]; 1000 g/ha", "value": "4 (4=61-80%)"}, {"measurement": "percentage damage caused to the plant, ECHCG (five-point scale)", "setting": "[8]; 250 g/Ha", "value": "3 (3=41-60%)"}, {"measurement": "percentage damage caused to the plant, ECHCG (five-point scale)", "setting": "[8]; 1000 g/ha", "value": "4 (4=61-80%)"}, {"measurement": "percentage damage caused to the plant, ZEAMX (five-point scale)", "setting": "[9]; 250 g/Ha", "value": "1 (1=0-20%)"}, {"measurement": "percentage damage caused to the plant, ZEAMX (five-point scale)", "setting": "[9]; 1000 g/ha", "value": "3 (3=41-60%)"}, {"measurement": "percentage damage caused to the plant, IPOHE (five-point scale)", "setting": "[10]; 250 g/Ha", "value": "4 (4=61-80%)"}, {"measurement": "percentage damage caused to the plant, IPOHE (five-point scale)", "setting": "[10]; 1000 g/ha", "value": "3 (3=41-60%)"}, {"measurement": "percentage damage caused to the plant, AMAPA (five-point scale)", "setting": "[11]; 250 g/Ha", "value": "2 (2=21-40%)"}, {"measurement": "percentage damage caused to the plant, AMAPA (five-point scale)", "setting": "[11]; 1000 g/ha", "value": "2 (2=21-40%)"}, {"measurement": "percentage damage caused to the plant, AMARE (five-point scale)", "setting": "[12]; 250 g/Ha", "value": "2 (2=21-40%)"}, {"measurement": "percentage damage caused to the plant, AMARE (five-point scale)", "setting": "[12]; 1000 g/ha", "value": "2 (2=21-40%)"}]}
{"smiles": "CCn1c(Cn2cncc2C(F)(F)F)cc(=O)c(C(=O)O)c1-c1ccc(Cl)c(Cl)c1", "note": "[Compound 16, 2-(3,4-dichlorophenyl)-1-ethyl-4-oxo-6-[[5-(trifluoromethyl)imidazol-1-yl]methyl]pyridine-3-carboxylic acid]", "values": [{"measurement": "Pre-emergence Test SETFA, percentage damage caused to the plant (five-point scale)", "setting": "[1]; 250 g/Ha (*)", "value": 0}, {"measurement": "Pre-emergence Test SETFA, percentage damage caused to the plant (five-point scale)", "setting": "[1]; 1000 g/ha", "value": "1 (1=0-20%)"}, {"measurement": "Pre-emergence Test ECHCG, percentage damage caused to the plant (five-point scale)", "setting": "[2]; 250 g/Ha (*)", "value": "1 (1=0-20%)"}, {"measurement": "Pre-emergence Test ECHCG, percentage damage caused to the plant (five-point scale)", "setting": "[2]; 1000 g/ha", "value": "4 (4=61-80%)"}, {"measurement": "Pre-emergence Test ZEAMX, percentage damage caused to the plant (five-point scale)", "setting": "[3]; 250 g/Ha (*)", "value": 0}, {"measurement": "Pre-emergence Test ZEAMX, percentage damage caused to the plant (five-point scale)", "setting": "[3]; 1000 g/ha", "value": 0}, {"measurement": "Pre-emergence Test IPOHE, percentage damage caused to the plant (five-point scale)", "setting": "[4]; 250 g/Ha (*)", "value": 0}, {"measurement": "Pre-emergence Test IPOHE, percentage damage caused to the plant (five-point scale)", "setting": "[4]; 1000 g/ha", "value": 0}, {"measurement": "Pre-emergence Test AMAPA, percentage damage caused to the plant (five-point scale)", "setting": "[5]; 250 g/Ha (*)", "value": "3 (3=41-60%)"}, {"measurement": "Pre-emergence Test AMAPA, percentage damage caused to the plant (five-point scale)", "setting": "[5]; 1000 g/ha", "value": "5 (5=81-100%)"}, {"measurement": "Pre-emergence Test AMARE, percentage damage caused to the plant (five-point scale)", "setting": "[6]; 250 g/Ha (*)", "value": "1 (1=0-20%)"}, {"measurement": "Pre-emergence Test AMARE, percentage damage caused to the plant (five-point scale)", "setting": "[6]; 1000 g/ha", "value": "4 (4=61-80%)"}, {"measurement": "percentage damage caused to the plant, SETFA (five-point scale)", "setting": "[7]; 250 g/Ha", "value": "2 (2=21-40%)"}, {"measurement": "percentage damage caused to the plant, SETFA (five-point scale)", "setting": "[7]; 1000 g/ha", "value": "5 (5=81-100%)"}, {"measurement": "percentage damage caused to the plant, ECHCG (five-point scale)", "setting": "[8]; 250 g/Ha", "value": "2 (2=21-40%)"}, {"measurement": "percentage damage caused to the plant, ECHCG (five-point scale)", "setting": "[8]; 1000 g/ha", "value": "4 (4=61-80%)"}, {"measurement": "percentage damage caused to the plant, ZEAMX (five-point scale)", "setting": "[9]; 250 g/Ha", "value": 0}, {"measurement": "percentage damage caused to the plant, ZEAMX (five-point scale)", "setting": "[9]; 1000 g/ha", "value": "4 (4=61-80%)"}, {"measurement": "percentage damage caused to the plant, IPOHE (five-point scale)", "setting": "[10]; 250 g/Ha", "value": "2 (2=21-40%)"}, {"measurement": "percentage damage caused to the plant, IPOHE (five-point scale)", "setting": "[10]; 1000 g/ha", "value": "5 (5=81-100%)"}, {"measurement": "percentage damage caused to the plant, AMAPA (five-point scale)", "setting": "[11]; 250 g/Ha", "value": "4 (4=61-80%)"}, {"measurement": "percentage damage caused to the plant, AMAPA (five-point scale)", "setting": "[11]; 1000 g/ha", "value": "5 (5=81-100%)"}, {"measurement": "percentage damage caused to the plant, AMARE (five-point scale)", "setting": "[12]; 250 g/Ha", "value": "4 (4=61-80%)"}, {"measurement": "percentage damage caused to the plant, AMARE (five-point scale)", "setting": "[12]; 1000 g/ha", "value": "1 (1=0-20%)"}]}
